In patent US11135224B2, “Methods of sensitizing estrogen receptor positive (ER+) breast cancer cells to endocrine therapy” (New York University, priority 2018, dated 2021):

Key:
Format in all cases: cell-based, human
[1] = test system: TamR cells (MCF7 LCC9); assay: Colony survival assay, TamR cells
Description: (§1) Cells were fixed in 70% ethanol overnight. Cells were subjected to RNaseA treatment and stained with propidium iodide (PI). Data was collected using FACScalibur and analyzed with FloJo 10.0 software. Data from 3 independent experiments are shown. SEMs are shown. **P<0.01 and ***P<0.001 by two-way ANOVA. […] TamS and TamR cells were treated with either DMSO or 1 μM 4-OH Tam and initiated on day 0. Results are representative of 3 independent experiments and presented as relative proliferation in which all samples are normalized to Day 0. Standard deviations are shown. *P<0.05 by t-test. […] Cells were treated with either DMSO or 1 μM 4-HT 24 hours after plating. Colonies scored after 10 days counting only ≥50 cells/colony. Results are representative of 3 independent experiments. SEMs are shown. ***P<0.001 by two-way ANOVA. […] Equal amounts of RNA were reverse transcribed and quantified through real-time PCR. RNA levels normalized to GAPDH using the ^−ΔΔCt method. Error bars represent SEM. […] RNA levels normalized to GAPDH using the ^−ΔΔCt method. Error bars represent SEM.
Cells were lysed in NP-40 buffer and probed for key translation factors. β-tubulin (loading control). […] Cells were treated with either DMSO or 1 μM 4-OH Tam 24 hours after plating. Dox (1 μg/mL) was administered 24 hours after plating and removed after 72 hours. Colonies scored after 10 days counting only ≥50 cells/colony. SEM is shown. […] Cells were treated with either DMSO control or 1 μM 4-OH Tam for 72 hours in 1% CS-FBS. Dox (1 μg/mL) was administered to cells for 72 hours. […] Data was collected using LSRII UV and analyzed with FloJo software. […] Data was collected using FACScalibur and analyzed with FloJo 10.0 software. […] Data was collected using FACScalibur and analyzed with FloJo 10.0 software. […] Colonies scored after 10 days counting only ≥50 cells/colony. […]
Hsp70 (loading control). […] Colonies were scored after 10 days counting only >50 cells/colony. […] Equal amounts of RNA were resolved by sucrose gradient centrifugation and ribosome profiles monitored by UV absorbance 254 nm. […]

[2] = test system: TamR cells (MCF7 LCC9); assay: Cell cycle analysis, TamR cells; details: 20 nM RAD001 plus 1 μM 4-OH Tam, 72 hours
Description: Cells were lysed in NP-40 buffer and probed for key translation factors. β-tubulin (loading control). […] Cells were treated with either DMSO or 1 μM 4-OH Tam 24 hours after plating. Dox (1 μg/mL) was administered 24 hours after plating and removed after 72 hours. Colonies scored after 10 days counting only ≥50 cells/colony. SEM is shown. […] Cells were treated with either DMSO control or 1 μM 4-OH Tam for 72 hours in 1% CS-FBS. Dox (1 μg/mL) was administered to cells for 72 hours. Cells were fixed in 70% ethanol overnight and subjected to RNaseA treatment. Cells were stained with Hoechst 33342. Data was collected using LSRII UV and analyzed with FloJo software. Data from 3 independent experiments are shown. SEM is shown. *P<0.05 by two-way ANOVA. […] Cap chromatography performed on TamR cells with or without 4E-BP1 cDNA overexpression. Cells were lysed in NP-40 buffer and pulldown was performed for 1 hour at 4° C. Proteins were eluted and resolved via SDS-PAGE. […] Data was collected using FACScalibur and analyzed with FloJo 10.0 software. […] Data was collected using FACScalibur and analyzed with FloJo 10.0 software. […] Colonies scored after 10 days counting only ≥50 cells/colony. […]
(§2) Cell Cycle Analysis: Cells were trypsinized, filtered, and counted using an automated cell counter (Bio-Rad). […] Data were collected using a FACScalibur or LSRII UV and analyzed with FlowJo 10.0.

[3] = test system: TamR cells (MCF7 LCC9); assay: Cell proliferation assay (MTT), TamR cells; details: 1 μM 4-OH Tam
Description: as §1
Endogenous eIF4E was silenced by shRNA. […]
Cell Proliferation Assay: Cell proliferation was measured using the CellTiter 96 nonradioactive cell proliferation assay kit (Promega) according to the manufacturer's instructions. […] Absorbance was measured at 570 nm. […]

[4] = test system: BR7 (PDX) cells; assay: Cell cycle analysis, BR7 (PDX) cells; details: 1 μM 4-OH Tam
Description: as §1, §2

[5] = test system: canonical ER signaling in TamR cells; assay: ER signaling mRNA expression (c-Myc, EEIG1) by real-time PCR, TamR cells; details: Tam for 24 hours
Description: as §1
(§3) Quantitative Real-Time PCR (RT-qPCR) and Analysis: RNA was extracted using Trizol as per the manufacturer's instructions. […] Fold change was calculated using the 2^−ΔΔCt method.

[6] = test system: canonical ER signaling in BR7 cells; assay: ER signaling mRNA expression (c-Myc, EEIG1) by real-time PCR, BR7 (PDX) cells; details: Tam for 24 hours
Description: as §1, §3

[7] = test system: TamS cells (MCF7 LCC1); assay: Cell cycle analysis, TamS cells with or without eIF4E overexpression; details: 1 μM 4-OHT for 72 h, regardless of eIF4E overexpression
Description: Dox (2 μg/mL) was added 72 hours prior to lysis in NP-40 buffer. Equal protein amounts were immunoblotted as shown. β-Actin was used as a loading control. […] Dox (2 μg/mL) was added for 72 hours. Cells were subjected to exhaustive RNase A and stained with propidium iodide (PI). Flow cytometry data were collected using a FACScalibur and analyzed with FloJo software. The average of three studies is shown. […] Cells were treated with 2 μg/mL Dox for 72 hours and lysed in NP-40 buffer. Equal protein amounts were immunoblotted. β-Actin was used as a loading control. Representative results are shown. […] TamS sh-control, eIF4E-overexpressing, shTSC2, and shTSC2 and eIF4E-overexpressing cells were treated with either DMSO or 1 μM 4-OHT. (**)P<0.01; (***)P<0.0001 by two-way ANOVA. […] Results are the average of three independent studies.
Cell Cycle Analysis: Cells were trypsinized, filtered, and counted using an automated cell counter (Bio-Rad). Cells (7×10^5) were seeded on 10-cm culture plates in IMEM (Corning) with 5% FBS (Gibco) and 0.4% gentamicin sulfate (Lonza) and allowed to adhere overnight. The medium was changed to IMEM (Corning) with 1% charcoal-stripped FBS (HyClone) and 0.4% gentamicin sulfate for 48 hours. Cells were treated with the appropriate drug for 72 hours and with fresh drug after 48 hours. […] Data were collected using a FACScalibur or LSRII UV and analyzed with FlowJo 10.0.

Compound	resensitization to tamoxifen: survival ([1]; 20 nM RAD001 plus 1 μM 4-OH Tam, 10 days)	cell survival on cotreatment ([1]; RAD001 added to 1 μM 4-OHT plus 10 μM CGP57380)	resensitization to tamoxifen: cell proliferation [2]	proliferation under tamoxifen [3]	survival under tamoxifen ([1]; 1 μM 4-OH Tam, 10 days)	cell cycle distribution under tamoxifen [4]	tamoxifen-induced repression of canonical ER signaling [5]	tamoxifen-induced repression of canonical ER signaling [6]	proliferation in the presence of tamoxifen [7]
CO[C@H]1C[C@@H]2CC[C@@H](C)[C@@](O)(O2)C(=O)C(=O)N2CCCC[C@H]2C(=O)O[C@H]([C@H](C)C[C@@H]2CC[C@@H](OCCO)[C@H](OC)C2)CC(=O)[C@H](C)/C=C(\C)[C@@H](O)[C@@H](OC)C(=O)[C@H](C)C[C@H](C)/C=C/C=C/C=C/1C [RAD001, Everolimus]	decreased survival	further additive reduction in cell survival	restoration of inhibition of cell proliferation						
CC/C(=C(\c1ccccc1)c1ccc(OCCN(C)C)cc1)c1ccccc1 [tamoxifen]				maintain normal proliferation and survival	maintain normal proliferation and survival	normal cell cycle distribution	insensitive	insensitive	unable to proliferate
